# Test results taken from US20260240941A1, “TREATMENT AND PREVENTION OF AGENT-INDUCED LIVER CONDITIONS OR DISEASES” (FARSIGHT MEDICAL TECHNOLOGY (SHANGHAI) CO., LTD., priority 2023, published 2026).
# “Also recorded” adds a separate entry of the source.
# Assays:
# [1] = system: C57BL/6J wild-type mice; assay: Alcohol-induced liver injury in mice (chronic 8 weeks ethanol diet plus multiple binges, E8w+nB); type: in vivo; conditions: 10 mg/kg i.p. daily for the last two weeks of 8 weeks alcohol plus binges
# Source text: C57BL/6J wild-type mice were purchased from Guangdong Medical Animal Centre (Guangzhou, China). Male mice (n=7, 8 weeks of age) were randomly assigned to the different treatment groups. The mice were initially fed a controlled Lieber-DeCarli diet ad libitum for 5 days (TP4030C, Trophic Animal Feed High-Tech Co., Ltd, China) to acclimatize them to a liquid diet. Subsequently, the ethanol-fed groups were allowed free access for 8 weeks to an ethanol diet (TP4030D, Trophic) containing 5% (vol/vol) ethanol.
# Chronic (8 weeks)-plus-multiple binges (E8w+nB): mice were fed an ethanol Lieber-DeCarli diet for 8 weeks as described above and treated by gavage administration twice a week (5 g/kg ethanol) during the 8-week feeding. Mice were euthanized 9 h post gavage.
# The control mice were pair-fed an isocaloric control liquid diet for 8 weeks (P8w), followed by gavage administration of isocaloric liquid dextrin-maltose (Ctrl), without exposure to alcohol.
# Compound 1 was made fresh for each experiment in sterile 0.9% saline at 20 mg/ml and administered intraperitoneally (10 mg/kg) daily for the last two weeks.
# Blood samples and livers were harvested for serum ALT and AST, and histology. All liver sections were stained with H&E and Oil Red O staining. The features of alcoholic liver disease (“ALD”) are scored according to the non-alcoholic fatty liver disease (“NAFLD”) activity score (“NAS”) originally developed to measure changes in NAFLD during therapeutic trials but is also applicable to ALD. The ALD score of each group was calculated according to standard procedures.
# Oil Red O is a fat-soluble azo dye, used to stain fats, specifically neutral triglycerides, lipids and lipoproteins in tissues and cells. […] The Oil Red O quantification “a.v.” means a subjective quantity, i.e., “arbitrary value”. The image quantification software ImageJ was used to select the area of oil red staining in liver sections and the area of lipid droplets in quantitative sections.
# [2] = system: C57BL/6J wild-type mice; assay: Acetaminophen-induced liver injury model in mice; type: in vivo; conditions: for Necrotic Area (%) of the liver (liver tissue protection): 5 mg/kg and 10 mg/kg i.v. 1 h after APAP 300 mg/kg i.p.; for Necrotic Area (%) of the liver (liver tissue protection) / ALT biomarker level / AST biomarker level: vs APAP alone
# Procedure: C57BL/6J wild-type mice were purchased from Guangdong Medical Animal Centre (Guangzhou, China). Male mice (n=8, 8 weeks of age) were randomly assigned to the different treatment groups. Mice were acclimatized to their environment for 1 week before the experiments. Animals were fasted overnight, but allowed access to water, before acetaminophen (APAP) administration.
# APAP (Sigma Aldrich) was dissolved in warm phosphate-buffered saline (PBS; 55° C.) that was cooled to 37° C. before injection and administered intraperitoneally with APAP at a dose of 300 mg/kg after 15 hours of starvation. Compound 1 was made fresh for each experiment in sterile 0.9% saline at 20 mg/ml. N-acetylcysteine (NAC, Sigma Aldrich) was made fresh for each experiment in 0.9% saline at 20 mg/ml.
# After APAP administration (1 hours), either PBS (Control Group), Compound 1 (10 mg/kg, 5 mg/kg, 2.5 mg/kg, 1 mg/kg) or NAC (150 mg/kg) were injected intravenously in the tail vein of mice. In the Control Group, the mice were injected with phosphate-buffered saline vehicle (labelled “Ctrl” in the Figures), in the Vigilance Group the mice were injected with Compound 1 (labelled “v-Compound 1-10 mg” in the Figures). In both the Control and Vigilance Groups, no APAP was administered.
# Mice were sacrificed at 6 and 24 hours after administration of APAP. Blood samples and livers were harvested for serum ALT (alanine aminotransferase) and AST (aspartate aminotransferase), and histology. ALT and AST in serum samples were detected using the alanine aminotransferase assay kit (S03030) and the aspartate aminotransferase assay kit (S03040) and automated clinical chemistry analyzer (Chemray 800) from Rayto.
# All liver sections were stained with a hematoxylin and eosin (H&E) stain. Necrotic area was measured and expressed as a percentage of necrotic tissue in whole area of liver section. All animal procedures were approved by the Laboratory Animals Ethics Committee of Jinan University (Guangzhou, China).
# [3] = 5 mg/kg and 10 mg/kg i.v., 6 hours after APAP
# [4] = 5 mg/kg and 10 mg/kg i.v., 24 hours after APAP
# [5] = all Compound 1 levels (1, 2.5, 5, 10 mg/kg i.v.), 6 hours after APAP
# [6] = all Compound 1 levels (1, 2.5, 5, 10 mg/kg i.v.), 24 hours after APAP
smiles,measurement,setting,value
"C/C=C/C[C@@H](C)[C@@H](O)[C@H]1C(=O)N[C@@H](CC)C(=O)N(C)[C@H](OCCN(C)C)C(=O)N(C)[C@@H](CC(C)C)C(=O)N[C@@H](C(C)C)C(=O)N(C)[C@@H](CC(C)C)C(=O)N[C@@H](C)C(=O)N[C@H](C)C(=O)N(C)[C@@H](CC(C)C)C(=O)N(C)[C@@H](CC(C)C)C(=O)N(C)[C@@H](C(C)C)C(=O)N1C [Compound 1, [(R)-2′(2-dimethylaminoethoxy)-Sar]^3 cyclosporin A]",serum ALT (alanine aminotransferase) level,[1]; vs untreated ALD,reduces
same,serum AST (aspartate aminotransferase) level,[1]; vs untreated ALD,reduces
same,"hepatic lipid accumulation (Oil Red O liver staining, a.v.)",[1]; vs untreated ALD Group,reduces hepatic lipid accumulation
same,"TNF-α, IL-1β, and/or IL-6 inflammation biomarker levels of the liver","[2]; 2.5 mg/kg, 5 mg/kg and 10 mg/kg i.v., 6 hours after APAP",reduced
same,Necrotic Area (%) of the liver (liver tissue protection),[2]; 6 hours after APAP,showed liver tissue protection; also recorded: reduced necrotic area
same,Necrotic Area (%) of the liver (liver tissue protection),[2]; 24 hours after APAP,showed liver tissue protection; also recorded: reduced necrotic area
same,IL-1β inflammation biomarker (ELISA),[2]; [3],reduced
same,IL-6 inflammation biomarker (ELISA),[2]; [3],reduced
same,TNF-α inflammation biomarker (ELISA),[2]; [3],reduced
same,ALT biomarker level,[2]; [3],reduced
same,AST biomarker level,[2]; [3],reduced
same,IL-1β inflammation biomarker (ELISA),[2]; [4],reduced
same,IL-6 inflammation biomarker (ELISA),[2]; [4],reduced
same,TNF-α inflammation biomarker (ELISA),[2]; [4],reduced
same,ALT biomarker level,[2]; [4],reduced
same,AST biomarker level,[2]; [4],reduced
same,serum ALT (alanine aminotransferase) biomarker level,[2]; [5],reduced
same,serum AST (aspartate aminotransferase) biomarker level,[2]; [5],reduced
same,"TNF-α, IL-1β, and/or IL-6 inflammation biomarker levels of the liver",[2]; [6],reduced
same,serum ALT (alanine aminotransferase) biomarker level,[2]; [6],reduced
same,serum AST (aspartate aminotransferase) biomarker level,[2]; [6],reduced
